As usually defined, the IC50 is the concentration that inhibits the measured activity by half.

This is an account of results in US20230286970A1, “NOVEL OXADIAZOLE-BASED SELECTIVE HDAC6 INHIBITORS” (ITALFARMACO S.P.A., priority 2020, published 2023).

Molecules are shown by their SMILES.

Data set [1] is described as follows: Stability to Phase I metabolism in rat S9 liver fraction. The settings on record: after 90 minutes, 37° C.
Protocol: Test compounds were incubated in rat and human liver S9 fraction at 37° C. up to 90 minutes in order to evaluate their stability to Phase I metabolism by hepatic enzymes. Each test compound was incubated at μM concentration (50 μM when the samples were analysed by UV/HPLC, 1 or 2 μM when the samples were analysed by LC-MS/MS) with S9 fraction (protein content 2 mg/m L) in 100 mM phosphate buffer (pH 7.4), 3.3 mM MgCl2 and 1.3 mM NADPH for 0, 10, 30, 60 and 90 minutes at 37° C. in a thermostated oscillating bath. The reaction was stopped placing samples on ice bath and adding acidified acetonitrile. After centrifugation (10 minutes at 14000 rpm) an aliquot of the supernatant was diluted with water, filtered with 0.45 μm regenerated cellulose syringe filters and injected in HPLC-UV or in LC-MS/MS. The percentage of the remaining amount at the various incubation times with respect to the initial amount were calculated.
A short description of data set [2]: Stability to Phase I metabolism in human S9 liver fraction. The settings on record: after 90 minutes, 37° C.
Another data set in a line: Stability in rat plasma. The settings on record: after 4 hours, 37° C.
In a further data set the target is recombinant human HDAC6 (Homo sapiens (Human), UniProt Q9UBN7). As to the kind of experiment: Enzymatic screening, HDAC6 inhibition (fluorogenic FdL_G substrate). In kind it is biochemical. The gist of the method:
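Enzyme was preincubated with compound (8 doses, triplicate, 1% DMSO) in 25 mM Tris-HCl pH 8, 130 mM NaCl, 0.05% Tween-20, 10% glycerol, with BSA. A FLUOR DE LYS-Green substrate was then added, and fluorescence was read after developer plus 2 μM TSA.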

Data set [3] is described as follows: Stability in human plasma. The settings on record: after 4 hours, 37° C.
A further data set addresses recombinant human HDAC1 (Homo sapiens (Human), UniProt Q13547). As to the kind of experiment: Enzymatic screening, HDAC1 inhibition (fluorogenic FdL_G substrate). In kind it is biochemical. The gist of the method:
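Recombinant human HDAC1 inhibition was measured fluorometrically using the FLUOR DE LYS-Green (FdL_G) substrate. Compounds at 8 doses (1% DMSO final) in Tris-HCl pH 8 buffer with NaCl, Tween-20 and glycerol were preincubated in triplicate with enzyme and 1 mg/mL BSA, then given substrate. Developer I plus 2 μM TSA was added, and fluorescence read after 25 minutes in the dark.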

recombinant human HDAC6, sequence (Q9UBN7 whole entry): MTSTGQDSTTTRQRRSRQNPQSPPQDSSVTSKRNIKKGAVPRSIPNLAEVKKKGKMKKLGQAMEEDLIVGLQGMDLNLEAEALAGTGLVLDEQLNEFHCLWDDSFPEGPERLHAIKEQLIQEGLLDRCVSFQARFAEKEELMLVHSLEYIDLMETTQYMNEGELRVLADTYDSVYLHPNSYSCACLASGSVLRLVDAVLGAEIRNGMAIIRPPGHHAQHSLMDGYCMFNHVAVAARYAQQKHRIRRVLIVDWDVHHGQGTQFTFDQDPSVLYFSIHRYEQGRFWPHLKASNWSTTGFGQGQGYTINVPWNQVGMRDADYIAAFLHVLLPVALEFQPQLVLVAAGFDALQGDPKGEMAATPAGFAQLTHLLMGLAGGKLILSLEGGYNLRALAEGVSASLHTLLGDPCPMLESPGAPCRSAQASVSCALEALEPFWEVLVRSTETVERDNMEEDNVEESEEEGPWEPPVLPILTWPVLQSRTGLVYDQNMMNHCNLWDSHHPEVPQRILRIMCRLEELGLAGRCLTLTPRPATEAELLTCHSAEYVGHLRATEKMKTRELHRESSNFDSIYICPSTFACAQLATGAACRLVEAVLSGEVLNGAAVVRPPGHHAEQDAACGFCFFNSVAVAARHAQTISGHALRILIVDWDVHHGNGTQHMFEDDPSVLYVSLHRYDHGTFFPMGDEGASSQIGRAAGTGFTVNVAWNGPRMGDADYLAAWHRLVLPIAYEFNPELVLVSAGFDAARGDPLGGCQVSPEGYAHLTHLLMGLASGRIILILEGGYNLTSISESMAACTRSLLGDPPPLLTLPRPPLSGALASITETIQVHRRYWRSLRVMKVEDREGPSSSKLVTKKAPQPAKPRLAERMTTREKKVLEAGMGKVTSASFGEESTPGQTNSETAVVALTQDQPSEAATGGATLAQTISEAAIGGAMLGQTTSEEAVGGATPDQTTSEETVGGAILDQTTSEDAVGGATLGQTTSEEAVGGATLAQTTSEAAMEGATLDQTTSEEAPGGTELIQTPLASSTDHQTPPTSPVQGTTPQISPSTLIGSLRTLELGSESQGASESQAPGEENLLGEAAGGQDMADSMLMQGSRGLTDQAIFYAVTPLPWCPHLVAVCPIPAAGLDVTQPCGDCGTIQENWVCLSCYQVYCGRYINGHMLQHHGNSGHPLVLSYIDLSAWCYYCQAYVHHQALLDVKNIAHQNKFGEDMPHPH
recombinant human HDAC1, sequence (Q13547 whole entry): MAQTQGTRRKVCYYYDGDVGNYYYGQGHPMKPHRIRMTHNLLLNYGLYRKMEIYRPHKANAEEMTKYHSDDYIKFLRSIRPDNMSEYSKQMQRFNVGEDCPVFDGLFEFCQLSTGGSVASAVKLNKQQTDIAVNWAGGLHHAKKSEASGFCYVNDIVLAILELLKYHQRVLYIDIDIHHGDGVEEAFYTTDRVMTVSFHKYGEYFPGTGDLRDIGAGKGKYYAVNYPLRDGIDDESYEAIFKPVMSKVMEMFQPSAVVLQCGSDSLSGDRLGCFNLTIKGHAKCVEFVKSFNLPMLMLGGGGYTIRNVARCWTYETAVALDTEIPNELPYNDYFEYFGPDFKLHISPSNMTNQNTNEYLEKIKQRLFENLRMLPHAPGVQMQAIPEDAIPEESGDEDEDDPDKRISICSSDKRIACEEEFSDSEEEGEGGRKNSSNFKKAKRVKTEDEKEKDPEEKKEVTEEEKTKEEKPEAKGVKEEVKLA

With `O=C(c1cccc(-c2nnn(Cc3ccc(-c4nnc(C(F)F)o4)cn3)n2)c1)N1CCOCC1` [compound 69, (3-(2-((5-(5-(difluoromethyl)-1,3,4-oxadiazol-2-yl)pyridin-2-yl)methyl)-2H-tetrazol-5-yl)phenyl)(morpholino)methanone], in data set [1], the “residual percentage in RAT S9 FRACTION” value worked out at 83%. In data set [2], the “residual percentage in HUMAN S9 FRACTION” value was determined as 97%. Besides, in the data set “Stability in rat plasma”, the “residual percentage in RAT PLASMA” value is on record as 79%. Further, the IC50 on recombinant human HDAC6 is 30 nM; on recombinant human HDAC1, above 200000 nM. The “residual percentage in HUMAN PLASMA” value in data set [3] was 79%.

On to `FC(F)c1nnc(-c2ccc(Cn3cc(-c4ccc(NC5=NCCN5)cc4)cn3)cc2)o1` [compound 269, N-(4-(1-(4-(5-(difluoromethyl)-1,3,4-oxadiazol-2-yl)benzyl)-1H-pyrazol-4-yl)phenyl)-4,5-dihydro-1H-imidazol-2-amine], for which the “residual percentage in RAT S9 FRACTION” value in data set [1] is 69%. Besides, in data set [2], the “residual percentage in HUMAN S9 FRACTION” value is on record as 81%. The “residual percentage in RAT PLASMA” value in “Stability in rat plasma” is listed as 71%. The figures for the IC50 at recombinant human HDAC6 and at recombinant human HDAC1 were 15 nM and above 200000 nM, respectively. Further, the “residual percentage in HUMAN PLASMA” value in data set [3] is given as 80%.

Regarding `CC(c1ccc(-c2nnc(C(F)F)o2)c(F)c1)n1cc(-c2ccc(N)nc2)nn1` (stereo not drawn) [compound 186, 5-(1-(1-(4-(5-(difluoromethyl)-1,3,4-oxadiazol-2-yl)-3-fluorophenyl)ethyl)-1H-1,2,3-triazol-4-yl)pyridin-2-amine], the “residual percentage in RAT S9 FRACTION” value in data set [1] is recorded as 90%. In addition, in data set [2], the “residual percentage in HUMAN S9 FRACTION” value came to 88%. In the data set “Stability in rat plasma”, the “residual percentage in RAT PLASMA” value is reported as 86%. In addition, the IC50 is 98 nM on recombinant human HDAC6 and above 200000 nM at recombinant human HDAC1. Moreover, the “residual percentage in HUMAN PLASMA” value in data set [3] is on record as 94%.

`CC(=O)Nc1cccc(-c2cn(Cc3ccc(-c4nnc(C(F)F)o4)cn3)nn2)c1` [compound 37, N-(3-(1-((5-(5-(difluoromethyl)-1,3,4-oxadiazol-2-yl)pyridin-2-yl)methyl)-1H-1,2,3-triazol-4-yl)phenyl)acetamide]: the “residual percentage in RAT S9 FRACTION” value in data set [1] was determined as 78%. Also, the “residual percentage in HUMAN S9 FRACTION” value in data set [2] is 71%. In the data set “Stability in rat plasma”, the “residual percentage in RAT PLASMA” value is 83%. The IC50 was 17 nM at recombinant human HDAC6 and above 200000 nM on recombinant human HDAC1. The “residual percentage in HUMAN PLASMA” value in data set [3] is recorded as 90%.

Regarding `Fc1cc(-c2nnc(C(F)F)o2)cc(F)c1Cn1cc(-c2cccs2)nn1` [compound 122, 2-(3,5-difluoro-4-((4-(thiophen-2-yl)-1H-1,2,3-triazol-1-yl)methyl)phenyl)-5-(difluoromethyl)-1,3,4-oxadiazole], the “residual percentage in RAT S9 FRACTION” value in data set [1] turned out to be 10%. Moreover, the “residual percentage in HUMAN S9 FRACTION” value in data set [2] is reported as 78%. Moreover, the “residual percentage in RAT PLASMA” value in the data set “Stability in rat plasma” was 84%. Moreover, the IC50 on recombinant human HDAC6 is 46 nM; at recombinant human HDAC1 it was above 200000 nM. The “residual percentage in HUMAN PLASMA” value in data set [3] was 88%.

As for `COc1ncccc1-c1cn(Cc2ccc(-c3nnc(C(F)F)o3)cn2)nn1` [compound 53, 2-(difluoromethyl)-5-(6-((4-(2-methoxypyridin-3-yl)-1H-1,2,3-triazol-1-yl)methyl)pyridin-3-yl)-1,3,4-oxadiazole], the “residual percentage in RAT S9 FRACTION” value in data set [1] stood at 91%. Besides, the “residual percentage in HUMAN S9 FRACTION” value in data set [2] is recorded as 88%. For the same compound, the “residual percentage in RAT PLASMA” value in “Stability in rat plasma” is listed as 78%. Also, the IC50 at recombinant human HDAC6 is 23 nM; at recombinant human HDAC1 it was above 200000 nM. Also, in data set [3], the “residual percentage in HUMAN PLASMA” value came to 77%.

On to `FC(F)c1nnc(-c2ccc(Cn3nnc(-c4cccc(-c5nc6c([nH]5)CCNC6)c4)n3)cc2)o1` [compound 108, 2-(difluoromethyl)-5-(4-((5-(3-(4,5,6,7-tetrahydro-1H-imidazo[4,5-c]pyridin-2-yl)phenyl)-2H-tetrazol-2-yl)methyl)phenyl)-1,3,4-oxadiazole], for which the “residual percentage in RAT S9 FRACTION” value in data set [1] is 68%. Further, in data set [2], the “residual percentage in HUMAN S9 FRACTION” value is given as 96%. Moreover, the “residual percentage in RAT PLASMA” value in the data set “Stability in rat plasma” is recorded as 77%. For the same compound, the results for the IC50 on recombinant human HDAC6 and on recombinant human HDAC1 were 45 nM and 66600 nM, respectively. For the same compound, the “residual percentage in HUMAN PLASMA” value in data set [3] came out at 78%.

With `Nc1nc2ccc(-c3cn(Cc4ccc(-c5nnc(C(F)F)o5)cn4)nn3)cc2[nH]1` [Compd. 30, 6-(1-((5-(5-(difluoromethyl)-1,3,4-oxadiazol-2-yl)pyridin-2-yl)methyl)-1H-1,2,3-triazol-4-yl)-1H-benzo[d]imidazol-2-amine], in data set [1], the “residual percentage in RAT S9 FRACTION” value was 96%. For the same compound, the “residual percentage in HUMAN S9 FRACTION” value in data set [2] was 80%. Moreover, the “residual percentage in RAT PLASMA” value in the data set “Stability in rat plasma” is listed as 68%. In addition, the IC50 was 10 nM at recombinant human HDAC6 and above 200000 nM on recombinant human HDAC1. In addition, in data set [3], the “residual percentage in HUMAN PLASMA” value was found to be 87%.

Take `Fc1cc(-c2nnc(C(F)F)o2)cc(F)c1Cn1cc(-c2cnc3cccnn23)nn1` [compound 67, 2-(3,5-difluoro-4-((4-(imidazo[1,2-b]pyridazin-3-yl)-1H-1,2,3-triazol-1-yl)methyl)phenyl)-5-(difluoromethyl)-1,3,4-oxadiazole]: the “residual percentage in RAT S9 FRACTION” value in data set [1] is listed as 39%. Further, the “residual percentage in HUMAN S9 FRACTION” value in data set [2] is 77%. In the data set “Stability in rat plasma”, the “residual percentage in RAT PLASMA” value is recorded as 74%. The figures for the IC50 at recombinant human HDAC6 and on recombinant human HDAC1 were 29 nM and above 200000 nM, respectively. For the same compound, in data set [3], the “residual percentage in HUMAN PLASMA” value came to 74%.

`CCC[C@H](c1ccc(-c2nnc(C(F)F)o2)cc1)n1cc(-c2ccc(N)nc2)nn1` [compound 143, (R)-5-(1-(1-(4-(5-(difluoromethyl)-1,3,4-oxadiazol-2-yl)phenyl)butyl)-1H-1,2,3-triazol-4-yl)pyridin-2-amine]: the “residual percentage in RAT S9 FRACTION” value in data set [1] amounted to 71%. Also, in data set [2], the “residual percentage in HUMAN S9 FRACTION” value was 89%. Further, the “residual percentage in RAT PLASMA” value in “Stability in rat plasma” was found to be 80%. The IC50 at recombinant human HDAC6 was 60 nM; on recombinant human HDAC1, above 200000 nM. Further, in data set [3], the “residual percentage in HUMAN PLASMA” value worked out at 60%.

Turning to `FC(F)c1nnc(-c2ccc(Cn3cc(-c4ccc5[nH]c(N6CCOCC6)nc5c4)nn3)cc2)o1` [Compd. 174, 4-(5-(1-(4-(5-(difluoromethyl)-1,3,4-oxadiazol-2-yl)benzyl)-1H-1,2,3-triazol-4-yl)-1H-benzo[d]imidazol-2-yl)morpholine], the “residual percentage in RAT S9 FRACTION” value in data set [1] is recorded as 72%. Also, the “residual percentage in HUMAN S9 FRACTION” value in data set [2] was found to be 91%. Also, the “residual percentage in RAT PLASMA” value in the data set “Stability in rat plasma” was determined as 80%. Besides, the IC50 at recombinant human HDAC6 is 87 nM; on recombinant human HDAC1, above 200000 nM. Besides, in data set [3], the “residual percentage in HUMAN PLASMA” value stood at 88%.

Take `Nc1ccc(-c2nc(Cc3ccc(-c4nnc(C(F)F)o4)cc3)no2)cn1` [compound 247, 5-(3-(4-(5-(difluoromethyl)-1,3,4-oxadiazol-2-yl)benzyl)-1,2,4-oxadiazol-5-yl)pyridin-2-amine]: the “residual percentage in RAT S9 FRACTION” value in data set [1] is reported as 65%. The “residual percentage in HUMAN S9 FRACTION” value in data set [2] is 98%. The “residual percentage in RAT PLASMA” value in the data set “Stability in rat plasma” is recorded as 81%. Moreover, the figures for the IC50 on recombinant human HDAC6 and at recombinant human HDAC1 were 272 nM and above 200000 nM, respectively. In data set [3], the “residual percentage in HUMAN PLASMA” value is recorded as 99%.

`O=C1Nc2ccc(-c3cn(Cc4ccc(-c5nnc(C(F)F)o5)cn4)nn3)cc2[C@@]12CCNC2` (single isomer, unassigned) [compound 273, 5-(1-((5-(5-(difluoromethyl)-1,3,4-oxadiazol-2-yl)pyridin-2-yl)methyl)-1H-1,2,3-triazol-4-yl)spiro[indoline-3,3′-pyrrolidin]-2-one]: the “residual percentage in RAT S9 FRACTION” value in data set [1] is listed as 99%. The “residual percentage in HUMAN S9 FRACTION” value in data set [2] is listed as 92%. In “Stability in rat plasma”, the “residual percentage in RAT PLASMA” value came to 74%. Moreover, the results for the IC50 at recombinant human HDAC6 and at recombinant human HDAC1 were 22 nM and above 200000 nM, respectively. Moreover, the “residual percentage in HUMAN PLASMA” value in data set [3] amounted to 83%.

With `FC(F)c1nnc(-c2ccc(Cn3nnc(-c4ccc5ccccc5n4)n3)cc2)o1` [compound 113, 2-(difluoromethyl)-5-(4-((5-(quinolin-2-yl)-2H-tetrazol-2-yl)methyl)phenyl)-1,3,4-oxadiazole], in data set [1], the “residual percentage in RAT S9 FRACTION” value is given as 85%. For the same compound, the “residual percentage in HUMAN S9 FRACTION” value in data set [2] came to 76%. Besides, the “residual percentage in RAT PLASMA” value in “Stability in rat plasma” is 92%. For the same compound, the IC50 on recombinant human HDAC6 is 43 nM; on recombinant human HDAC1, above 200000 nM. Moreover, the “residual percentage in HUMAN PLASMA” value in data set [3] worked out at 75%.

`COc1ccc(-c2nnn(Cc3ccc(-c4nnc(C(F)F)o4)cc3)n2)cc1OC` [compound 128, 2-(difluoromethyl)-5-(4-((5-(3,4-dimethoxyphenyl)-2H-tetrazol-2-yl)methyl)phenyl)-1,3,4-oxadiazole]: the “residual percentage in RAT S9 FRACTION” value in data set [1] was 13%. Also, the “residual percentage in HUMAN S9 FRACTION” value in data set [2] is 30%. For the same compound, in the data set “Stability in rat plasma”, the “residual percentage in RAT PLASMA” value is 83%. The IC50 was 49 nM at recombinant human HDAC6 and above 200000 nM on recombinant human HDAC1. In data set [3], the “residual percentage in HUMAN PLASMA” value turned out to be 96%.

Regarding `CN1CCC(NC(=O)c2cccc(-c3nnn(Cc4ccc(-c5nnc(C(F)F)o5)cc4)n3)c2)CC1` [compound 80, 3-(2-(4-(5-(difluoromethyl)-1,3,4-oxadiazol-2-yl)benzyl)-2H-tetrazol-5-yl)-N-(1-methylpiperidin-4-yl)benzamide], the “residual percentage in RAT S9 FRACTION” value in data set [1] turned out to be 46%. Besides, in data set [2], the “residual percentage in HUMAN S9 FRACTION” value is 94%. Moreover, in “Stability in rat plasma”, the “residual percentage in RAT PLASMA” value was found to be 88%. In addition, the IC50 on recombinant human HDAC6 is 33 nM; on recombinant human HDAC1 it was above 200000 nM. Further, the “residual percentage in HUMAN PLASMA” value in data set [3] amounted to 97%.
